What was measured:
[1] = molecular target: Interleukin-1 receptor-associated kinase 1 (Homo sapiens, UniProt P51617); assay: IRAK1 Enzymatic Assay: IRAK1 is a human purified recombinant enzyme (His-TEV-IRAK1 (194-712)) In this assay, IRAK-1 hydrolyses ATP and autophosphorylates.Measurement of IRAK-1 inhibition is performed in streptavidin coated 384 well FlashPlate (PerkinElmer #SMP410A).His-TEV-IRAK-1 (15 ng/well), ATP (1 μM, [33P]ATP 0.25 μCi/well) and compounds in DMSO (range of concentrations from 20 μM to 1 nM) or controls (2% DMSO) are incubated for 3 hours at 30° C. in assay buffer: Hepes pH 7.0 50 mM, Fatty acid-free BSA 0.1%, Dithiothreitol DTT 2 mM, MgCl2 10 mM, EGTA 0.5 mM, Triton-X-100 0.01%. Kinase reaction is stopped by addition of EDTA. Supernatant is discarded, plates are washed three times with 150 mM NaCl and radioactivity is then measured in a Microbeta Trilux reader.
[2] = molecular target: T1, Interleukin-1 receptor-associated kinase 4 (Homo sapiens, UniProt Q9NWZ3); assay: IRAK4 Enzymatic Assay: IRAK4 is a human purified recombinant enzyme ([…] IRAK4 hydrolyses ATP, autophosphorylates and phosphorylates a Serine/Threonine generic peptidic substrate (STK: 61ST1BLC from CisBio International based in Bagnols/Cèze FR).Measurement of IRAK-4 inhibition is performed in streptavidin coated 384 well FlashPlate (PerkinElmer #SMP410A). His-TEV-IRAK4 (20 ng/well), ATP (2 μM, [33P]ATP 0.25 μCi/well), STK1-biotin peptide (300 nM) and compounds in DMSO (range of concentrations from 20 μM to 1 nM) or controls (2% DMSO) are incubated for 3 hours at 30° C. in assay buffer: Hepes pH 7.0 50 mM, Fatty acid-free BSA 0.1%, Dithiothreitol DTT 2 mM, MgCl2 10 mM, EGTA 0.5 mM, Tween-20 0.01%, MnCl2 5 mM.Kinase reaction is stopped by addition of EDTA. Supernatant is discarded, plates are washed three times with 150 mM NaCl and radioactivity is then measured in a Microbeta Trilux reader.
T1 sequence (Q9NWZ3 whole entry): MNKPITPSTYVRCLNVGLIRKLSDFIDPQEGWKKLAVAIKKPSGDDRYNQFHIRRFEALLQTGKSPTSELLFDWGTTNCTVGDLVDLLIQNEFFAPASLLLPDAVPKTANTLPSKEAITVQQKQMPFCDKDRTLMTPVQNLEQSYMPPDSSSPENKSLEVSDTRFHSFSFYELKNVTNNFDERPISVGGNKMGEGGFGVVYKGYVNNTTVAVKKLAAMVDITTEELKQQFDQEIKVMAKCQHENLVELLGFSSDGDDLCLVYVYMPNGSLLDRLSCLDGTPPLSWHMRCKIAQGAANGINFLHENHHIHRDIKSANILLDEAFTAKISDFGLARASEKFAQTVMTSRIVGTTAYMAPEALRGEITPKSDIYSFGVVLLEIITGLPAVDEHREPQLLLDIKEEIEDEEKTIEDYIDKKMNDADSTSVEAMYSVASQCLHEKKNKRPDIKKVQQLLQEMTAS

Sequence of Interleukin-1 receptor-associated kinase 1 (P51617 whole entry): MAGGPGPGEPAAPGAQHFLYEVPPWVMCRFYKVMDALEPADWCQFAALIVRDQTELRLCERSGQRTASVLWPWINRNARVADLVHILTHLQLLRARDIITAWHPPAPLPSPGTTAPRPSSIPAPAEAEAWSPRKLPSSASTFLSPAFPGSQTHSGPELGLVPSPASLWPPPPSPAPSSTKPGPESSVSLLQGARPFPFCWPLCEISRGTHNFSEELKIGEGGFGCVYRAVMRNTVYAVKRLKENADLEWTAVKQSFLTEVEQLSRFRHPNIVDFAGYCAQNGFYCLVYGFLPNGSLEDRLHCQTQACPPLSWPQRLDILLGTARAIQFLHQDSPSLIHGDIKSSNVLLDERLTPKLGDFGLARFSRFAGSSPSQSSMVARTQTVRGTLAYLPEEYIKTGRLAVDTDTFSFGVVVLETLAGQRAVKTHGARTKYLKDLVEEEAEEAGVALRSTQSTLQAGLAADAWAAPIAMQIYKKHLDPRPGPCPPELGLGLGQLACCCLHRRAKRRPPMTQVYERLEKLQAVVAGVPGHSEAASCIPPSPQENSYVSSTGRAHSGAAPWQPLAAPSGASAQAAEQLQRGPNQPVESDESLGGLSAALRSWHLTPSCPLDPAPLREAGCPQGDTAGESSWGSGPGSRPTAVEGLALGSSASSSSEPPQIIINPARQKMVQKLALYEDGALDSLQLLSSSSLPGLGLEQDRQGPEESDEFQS

IC50 [1]: < 100 nM
IC50 [2]: < 100 nM
Compound: O=C1Nc2nc3ccccc3n2CCn2cc(cn2)-c2ccc(=O)n(n2)Cc2cccc1c2

Source: ChEMBL document CHEMBL5725580, “Macrocyclic pyridazinone derivatives” (2018)
